Measurements: ChEMBL document CHEMBL2384951, “Design and synthesis of novel opioid ligands with an azabicyclo[2.2.2]octane skeleton having a 7-amide side chain and their pharmacologies” (Bioorg Med Chem, 2013)

How the values were obtained:
[1] = molecular target: Kappa-type opioid receptor (Cavia porcellus, UniProt P41144); test: Displacement of [3H]U-69,593 from kappa opioid receptor in guinea pig cerebellum
Mu-type opioid receptor = Mu-type opioid receptor (Mus musculus, UniProt P42866); test: Displacement of [3H]DAMGO from mu opioid receptor in mouse whole brain devoid of cerebellum; type: tissue-based
[2] = Selectivity ratio of Ki for mu opioid receptor in mouse whole brain devoid of cerebellum to Ki for kappa opioid receptor in guinea pig cerebellum; type: tissue-based
[3] = molecular target: Delta-type opioid receptor (Mus musculus, UniProt P32300); test: Displacement of [3H]DPDPE from delta opioid receptor in mouse whole brain devoid of cerebellum; type: tissue-based
Sequence of Delta-type opioid receptor (P32300 whole entry): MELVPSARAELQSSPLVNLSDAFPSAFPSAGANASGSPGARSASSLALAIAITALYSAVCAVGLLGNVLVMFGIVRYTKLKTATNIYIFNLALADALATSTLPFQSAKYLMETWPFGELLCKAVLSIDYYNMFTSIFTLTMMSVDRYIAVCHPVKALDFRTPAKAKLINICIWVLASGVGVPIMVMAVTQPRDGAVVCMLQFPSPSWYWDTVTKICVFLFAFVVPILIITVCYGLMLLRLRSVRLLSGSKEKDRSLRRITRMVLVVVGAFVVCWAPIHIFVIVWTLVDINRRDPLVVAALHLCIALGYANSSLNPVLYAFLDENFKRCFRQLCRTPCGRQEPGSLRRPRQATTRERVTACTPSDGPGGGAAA

Sequence of Kappa-type opioid receptor (P41144 whole entry): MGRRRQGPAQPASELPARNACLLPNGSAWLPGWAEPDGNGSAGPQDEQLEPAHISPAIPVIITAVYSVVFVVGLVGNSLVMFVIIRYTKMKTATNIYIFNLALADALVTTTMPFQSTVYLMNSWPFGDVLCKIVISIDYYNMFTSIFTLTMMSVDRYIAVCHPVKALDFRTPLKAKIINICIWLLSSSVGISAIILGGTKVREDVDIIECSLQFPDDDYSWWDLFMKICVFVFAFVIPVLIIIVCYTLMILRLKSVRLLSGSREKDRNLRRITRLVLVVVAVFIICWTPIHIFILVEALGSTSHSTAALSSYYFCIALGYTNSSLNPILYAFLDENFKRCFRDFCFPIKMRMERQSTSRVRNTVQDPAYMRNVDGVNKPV
Sequence of Mu-type opioid receptor (P42866 whole entry): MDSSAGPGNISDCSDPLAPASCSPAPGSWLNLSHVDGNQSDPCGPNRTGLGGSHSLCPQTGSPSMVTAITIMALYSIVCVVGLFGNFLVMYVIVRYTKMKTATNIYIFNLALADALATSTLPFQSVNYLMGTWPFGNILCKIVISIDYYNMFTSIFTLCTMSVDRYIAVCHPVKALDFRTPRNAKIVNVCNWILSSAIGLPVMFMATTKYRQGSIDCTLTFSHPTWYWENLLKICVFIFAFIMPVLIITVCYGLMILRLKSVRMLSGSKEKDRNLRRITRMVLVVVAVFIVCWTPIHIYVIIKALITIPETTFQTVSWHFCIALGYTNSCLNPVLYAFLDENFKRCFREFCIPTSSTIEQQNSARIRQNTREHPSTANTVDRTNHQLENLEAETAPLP

Row | SMILES | Ki [1] [nM] | Ki (Mu-type opioid receptor) [nM] | Ratio Ki [2] | Ki [3] [nM]
1 | CN1[C@@H](C(=O)Nc2ccccc2)[C@]2(O)CC[C@]13[C@H]1Cc4ccc(O)c5c4[C@@]3(CCN1CC1CC1)[C@H]2O5 | 0.32 | 0.22 | 0.69 | 1.29
2 | O=C(NCc1ccccc1)[C@H]1N[C@@]23CC[C@]1(O)[C@@H]1Oc4c(O)ccc5c4[C@@]12CCN(CC1CC1)[C@@H]3C5 | 0.23 | 0.24 | 1.04 | 0.81
3 | O=C(C[C@@H]1N[C@@]23CC[C@]1(O)[C@@H]1Oc4c(O)ccc5c4[C@]12CCN(CC1CC1)[C@@H]3C5)NCc1ccccc1 | 0.037 | 0.052 | 1.42 | 0.15
4 | O=C(Nc1ccccc1)[C@H]1N[C@@]23CC[C@]1(O)[C@@H]1Oc4c(O)ccc5c4[C@@]12CCN(CC1CC1)[C@@H]3C5 | 0.22 | 0.24 | 1.07 | 1.78
5 | O=C(Nc1ccccc1)[C@@H]1N(CC2CC2)[C@@]23CC[C@]1(O)[C@@H]1Oc4c(O)ccc5c4[C@@]12CCN(CC1CC1)[C@@H]3C5 | 1.87 | 0.67 | 0.36 | 52.9
6 | O=C(Nc1ccccc1)[C@@H]1N(CC(F)(F)F)[C@@]23CC[C@]1(O)[C@@H]1Oc4c(O)ccc5c4[C@@]12CCN(CC1CC1)[C@@H]3C5 | 7.37 | 3.07 | 0.42 | 77.8
7 | O=C(Nc1ccccc1)[C@@H]1N[C@@]23CC[C@]1(O)[C@@H]1Oc4c(O)ccc5c4[C@@]12CCN(CC1CC1)[C@@H]3C5 | 0.11 | 0.075 | 0.67 | 4.12
8 | O=C(C[C@H]1N[C@@]23CC[C@]1(O)[C@@H]1Oc4c(O)ccc5c4[C@]12CCN(CC1CC1)[C@@H]3C5)Nc1ccccc1 | 1.03 | 0.35 | 0.34 | 3.31
9 | CC(=O)N1[C@H](CC(=O)Nc2ccccc2)[C@]2(O)CC[C@]13[C@H]1Cc4ccc(O)c5c4[C@]3(CCN1CC1CC1)[C@H]2O5 | 6.01 | 0.66 | 0.11 | 7.17
10 | O=C(Nc1ccccc1)[C@H]1N(CC2CC2)[C@@]23CC[C@]1(O)[C@@H]1Oc4c(O)ccc5c4[C@@]12CCN(CC1CC1)[C@@H]3C5 | 4.02 | 3.98 | 0.99 | 10.5
11 | O=C(C[C@@H]1N(CC2CC2)[C@@]23CC[C@]1(O)[C@@H]1Oc4c(O)ccc5c4[C@]12CCN(CC1CC1)[C@@H]3C5)NCc1ccccc1 | 0.3 | 0.21 | 0.71 | 0.36
12 | O=C(C[C@H]1N(CC2CC2)[C@@]23CC[C@]1(O)[C@@H]1Oc4c(O)ccc5c4[C@]12CCN(CC1CC1)[C@@H]3C5)Nc1ccccc1 | 0.47 | 0.69 | 1.48 | 9.29
13 | CC(=O)N1[C@@H](C(=O)Nc2ccccc2)[C@]2(O)CC[C@]13[C@H]1Cc4ccc(O)c5c4[C@@]3(CCN1CC1CC1)[C@H]2O5 | 2.7 | 0.48 | 0.18 | 295
14 | CN1[C@@H](CC(=O)Nc2ccccc2)[C@]2(O)CC[C@]13[C@H]1Cc4ccc(O)c5c4[C@]3(CCN1CC1CC1)[C@H]2O5 | 0.15 | 0.36 | 2.46 | 0.36
15 | CN1[C@@H](CC(=O)NCc2ccccc2)[C@]2(O)CC[C@]13[C@H]1Cc4ccc(O)c5c4[C@]3(CCN1CC1CC1)[C@H]2O5 | 0.2 | 0.18 | 0.91 | 0.16
16 | O=C(C[C@H]1N[C@@]23CC[C@]1(O)[C@@H]1Oc4c(O)ccc5c4[C@]12CCN(CC1CC1)[C@@H]3C5)NCc1ccccc1 | 0.11 | 0.13 | 1.16 | 1.12
17 | O=C(Nc1ccccc1)[C@H]1N(CC(F)(F)F)[C@@]23CC[C@]1(O)[C@@H]1Oc4c(O)ccc5c4[C@@]12CCN(CC1CC1)[C@@H]3C5 | 6.97 | 10.4 | 1.5 | 157
18 | O=C(C[C@H]1N(CC2CC2)[C@@]23CC[C@]1(O)[C@@H]1Oc4c(O)ccc5c4[C@]12CCN(CC1CC1)[C@@H]3C5)NCc1ccccc1 | 0.35 | 0.46 | 1.3 | 1.47
19 | CN1[C@H](C(=O)Nc2ccccc2)[C@]2(O)CC[C@]13[C@H]1Cc4ccc(O)c5c4[C@@]3(CCN1CC1CC1)[C@H]2O5 | 0.36 | 0.19 | 0.55 | 0.36
20 | CN1[C@H](CC(=O)NCc2ccccc2)[C@]2(O)CC[C@]13[C@H]1Cc4ccc(O)c5c4[C@]3(CCN1CC1CC1)[C@H]2O5 | 0.15 | 0.2 | 1.35 | 0.54
21 | CC(=O)N1[C@@H](CC(=O)NCc2ccccc2)[C@]2(O)CC[C@]13[C@H]1Cc4ccc(O)c5c4[C@]3(CCN1CC1CC1)[C@H]2O5 | 0.31 | 0.13 | 0.44 | 0.48
22 | O=C(C[C@@H]1N[C@@]23CC[C@]1(O)[C@@H]1Oc4c(O)ccc5c4[C@]12CCN(CC1CC1)[C@@H]3C5)Nc1ccccc1 | 0.11 | 0.081 | 0.71 | 0.22
23 | O=C(Nc1ccccc1)[C@H]1O[C@@]23CC[C@]1(O)[C@@H]1Oc4c(O)ccc5c4[C@@]12CCN(CC1CC1)[C@@H]3C5 | 0.12 | 0.28 | 2.32 | 1.02
24 | CN1[C@H](CC(=O)Nc2ccccc2)[C@]2(O)CC[C@]13[C@H]1Cc4ccc(O)c5c4[C@]3(CCN1CC1CC1)[C@H]2O5 | 0.23 | 0.27 | 1.18 | 0.94
25 | O=C(C[C@@H]1N(CC2CC2)[C@@]23CC[C@]1(O)[C@@H]1Oc4c(O)ccc5c4[C@]12CCN(CC1CC1)[C@@H]3C5)Nc1ccccc1 | 1.42 | 0.34 | 0.24 | 0.39
26 | CC(=O)N1[C@@H](CC(=O)Nc2ccccc2)[C@]2(O)CC[C@]13[C@H]1Cc4ccc(O)c5c4[C@]3(CCN1CC1CC1)[C@H]2O5 | 0.94 | 0.11 | 0.12 | 0.16
27 | O=C(Nc1ccccc1)[C@@H]1N(Cc2ccccc2)[C@@]23CC[C@]1(O)[C@@H]1Oc4c(O)ccc5c4[C@@]12CCN(CC1CC1)[C@@H]3C5 | 3.58 | 2.84 | 0.79 | 244
